Data: patent publication US4048325A, “Low toxicity method of inhibiting sickling of sickle erythrocytes” (The United States of America as represented by the United …, priority 1976, dated 1977)
Like-named read-outs stand apart in the source and are kept apart here.

Columns and labels:
sickle erythrocytes [1] = settings: Lubin et al 1975; cited from earlier work
succinate oxidase = experiment: electron transport: succinate oxidase of mitochondrial inner membranes; type: biochemical; settings: for effect of treatment on succinate oxidase, in words: at comparable levels of amidination
Excerpt: (§1) When compared to bifunctional imidates, monoimidates have major advantages as therapeutic agents for the treatment of sickle cell disease. One important difference between the two classes of reagents is their relative effect on enzyme activity. […] The results as shown, respectively in Table II and FIG. 2. To facilitate a comparison of imidate action, effects were related to extent of amidination as measured by percent amino group decrease rather than the absolute reagent concentration.

ascorbate-TMPD oxidase = experiment: electron transport: ascorbate-TMPD oxidase of mitochondrial inner membranes; type: biochemical; settings: for effect of treatment on ascorbate-TMPD oxidase, in words: at comparable levels of amidination
Excerpt: as §1

NADH oxidase = experiment: electron transport: NADH oxidase of mitochondrial inner membranes; type: biochemical; settings: for effect of treatment on NADH oxidase, in words: at comparable levels of amidination
Excerpt: as §1

[2] = tested on: inner membrane ATPase (adenosine triphosphatase); experiment: inner membrane ATPase activity; type: biochemical; settings: at comparable levels of amidination (FIG. 2)
Excerpt: FIG. 2 is a graph illustating the effect of dimethylsuberimidate (DMS) and ethylacetimidate (EA) on inner membrane ATPase (adenosine triphosphatase) activity. Open symbols represent DMS-treated membranes, and closed symbols represent EA-treated membranes.
as §1
In the experiment designated by the closed circles in FIG. 2, membranes were treated with high concentrations of EA to determine the extent of amidination required for complete inhibition of activity. The concentrations of EA required for complete inhibition of activity are considerably in excess of the amount required to inhibit sickling.

in vivo = settings: ip, intraperitoneal
Excerpt: Each compound was made up in KH buffer (280 Mosm) buffered to pH 7.4 with 5N NaOH. The final volume for each injection was 1 cc in rats in 0.5 cc in mice.

sickle erythrocytes [3] = experiment: in vitro sickling of sickle erythrocytes after amidination; type: cell-based, human
Method: (§2) Cells were washed with Krebs-Henseleit Buffer (pH 7.4) to remove non-erythrocyte blood elements and resuspended in the same medium to a final hematocrit of 20-40%. Erythrocyte suspensions (4% hematocrit) were incubated in KHB (pH 8.5) containing freshly dissolved EA (1-10 mM). After incubation at room temperature (20°-22°) for 30 min, the cells were washed twice with KH buffer (pH 7.4) and resuspended either in the original plasma (40% hematocrit) for analysis of sickling or in other solutions as described below. To amidinate under anoxia the cells were equilibrated with nitrogen in a tonometer until no oxygen could be detected polarographically. Imidates were added in the dry state to anaerobic cell suspensions. Following treatment, the suspensions were diluted 1:1 with 0.1M Tris-acetate--0.15M NaCl buffer (pH 6.0) to quench amidination, and the cells washed as described above.
The cells were deoxygenated with freshly prepared sodium metabisulfite, fixed with 10% formaldehyde, and examined microscopically. Hypoxic conditions: Cell suspensions were deoxygenated by equilibration with 3% oxygen. Five hundred cells were conted to ascertain the extent of sickling.

rats = experiment: animal survival after exchange of treated blood; type: in vivo, rat; settings: 30mM in whole blood
Method: In experiments conducted to determine the effect of monoimidates on animal survival, rats were treated with ethylacetimidate at levels of 30mM in whole blood under conditions similar to the in vitro studies described above. This level fo treatment is at least 30 times higher than required for prevention of sickling in vitro. At least three-fourths of the blood was treated and exchanged.

[4] = molecular target: T1, hemoglobin of normal cells (Homo sapiens, UniProt P68871+P69905); experiment: hemoglobin-oxygen affinity (P50), normal cells; type: cell-based; settings: 1 mM
T1 construct: endogenous in cells; host or cells: normal erythrocytes from healthy volunteers
Method: as §2
(§3) The oxygen affinity of whole blood (P50) was determined in a tonometer as in B. H. Lubin et al, cited above.
(§4) Since oxyhemoglobin and deoxyhemoglobin differ in quaternary structure and since the structural differences may affect the manner in which imidates react with hemoglobin, amidination was carried out in the presence and absence of oxygen and the effect on oxygen affinity was then examined.

[5] = molecular target: T2, hemoglobin of sickle cells (Homo sapiens, UniProt P68871+P69905, E7V); experiment: hemoglobin-oxygen affinity (P50), sickle cells; type: cell-based; settings: 1 mM
T2 construct: endogenous in cells; host or cells: sickle erythrocytes (Children's Hospital, Oakland, CA)
Method: as §2, §3, §4

erythrocytes = experiment: hemolysis following incubation under the conditions of amidination; type: cell-based, human; settings: after incubation under the conditions of amidination
Method: as §2

sickle erythrocytes [6] = experiment: net potassium leak which accompanies sickling; type: cell-based, human

COC(=N)CCCCC(=N)OC [DMA, dimethyl adipimidate]
inhibition of sickling in vitro (literature report) (sickle erythrocytes [1]): inhibit sickling in vitro

COC(=N)CCCCCCC(=N)OC [DMS, dimethylsuberimidate, reference compound]
Succinate oxidase activity (% control) (succinate oxidase; 2 mM): 62 % control | Succinate oxidase activity (% control) (succinate oxidase; 10 mM): 22 % control | effect of treatment on succinate oxidase, in words (succinate oxidase): markedly inhibited | Ascorbate-TMPD oxidase activity (% control) (ascorbate-TMPD oxidase; 2 mM): 61 % control | Ascorbate-TMPD oxidase activity (% control) (ascorbate-TMPD oxidase; 10 mM): 28 % control | effect of treatment on ascorbate-TMPD oxidase, in words (ascorbate-TMPD oxidase): markedly inhibited | NADH oxidase activity (% control) (NADH oxidase; 2 mM): 58 % control | NADH oxidase activity (% control) (NADH oxidase; 10 mM): 10 % control | effect of treatment on NADH oxidase, in words (NADH oxidase): markedly inhibited | effect of treatment on ATPase activity, in words [2]: markedly inhibited

CCOC(C)=N [EA, ethyl acetimidate]
LD50 (in vivo; mouse, mice, read-out: LD50 (Lethal dose for 50% of the animals)): 950 mg/kg | LD50 (in vivo; rat, rats): 900 mg/kg | inhibition of sickling (sickle erythrocytes [3]; 2-5 mM imidate, in vitro): nearly complete inhibition | inhibition at 1000 µM (sickle erythrocytes [3]; Homo sapiens, Erythrocyte, 1 mM imidate, in vitro, read-out: prevention of sickling): 70 to 80% | prevention of sickling on renewed deoxygenation of cells amidinated under anoxia (sickle erythrocytes [3]; compared with amidination in the presence of oxygen): sickling was prevented to the same degree | effectiveness under hypoxic and anoxic conditions (sickle erythrocytes [3]; deoxygenation with 3% oxygen or sodium metabisulfite): effective under both hypoxic and anoxic conditions | inhibition of sickling (sickle erythrocytes [3]; low imidate concentrations (1-2mM)): approximately 80% | Succinate oxidase activity (% control) (succinate oxidase; 4 mM): 61 % control | Succinate oxidase activity (% control) (succinate oxidase; 20 mM): 45 % control | effect of treatment on succinate oxidase, in words (succinate oxidase): significantly less sensitive to EA than DMS | deleterious effects after exchange of treated blood (rats; at least three-fourths of the blood treated and exchanged, three experiments): no deleterious effects | hematocrits after treatment (rats; due to the loss of blood during the transfusion): slightly reduced | Ascorbate-TMPD oxidase activity (% control) (ascorbate-TMPD oxidase; 4 mM): 73 % control | Ascorbate-TMPD oxidase activity (% control) (ascorbate-TMPD oxidase; 20 mM): 64 % control | effect of treatment on ascorbate-TMPD oxidase, in words (ascorbate-TMPD oxidase): significantly less sensitive to EA than DMS | NADH oxidase activity (% control) (NADH oxidase; 4 mM): 78 % control | NADH oxidase activity (% control) (NADH oxidase; 20 mM): 56 % control | effect of treatment on NADH oxidase, in words (NADH oxidase): significantly less sensitive to EA than DMS | P50 ([4]; amidinated deoxygenated): 28.0 mm Hg | P50 ([4]; amidinated oxygenated): 25.0 mm Hg | P50 ([5]; amidinated deoxygenated): 35.0 mm Hg | P50 ([5]; amidinated oxygenated): 27.0 mm Hg | hemolysis (erythrocytes): Negligible hemolysis | effect of treatment on ATPase activity, in words [2]: significantly less inhibitory

COC(C)=N [methylacetimidate, methyl acetimidate]
prevention of in vitro sickling compared with EA (sickle erythrocytes [3]): as effective as EA | net potassium leak which accompanies sickling (sickle erythrocytes [6]): elimination of the net potassium leak

CCCC(=N)OC [methylbutyrimidate, methyl butyrimidate]
prevention of in vitro sickling compared with EA (sickle erythrocytes [3]): as effective as EA
